Reference: patent US4725683A, “Fluorophenoxyphenoxypropionates and derivatives thereof” (The Dow Chemical Company, priority 1985, dated 1988)

Key:
Test in all cases: Preemergent activity
Format in all cases: in vivo
Wild Oats = conditions: Avena fatua, pre-emergence, read-out: Preemergence Control; for pest or weed control at 140 g/ha: 0.14 kgs/hectare; for pest or weed control at 1120 g/ha: 1.12 kgs/hectare; for pest or weed control at 70 g/ha: 0.07 kgs/hectare; for pest or weed control at 280 g/ha: 0.28 kgs/hectare; for pest or weed control at 560 g/ha: 0.56 kgs/hectare
Description: (§1) In a representative operation, 2-[4-(2-fluoro-4-trifluoromethylphenoxy)phenoxy]propionic acid methyl ester, to be utilized in a series of tests, is dissolved in acetone to one half of the final volume (twice the final concentration) to be used and the acetone solution in each case is admixed with an equal volume of water containing 0.1 percent by weight of Tween-20 surface active material (Tween-20 is a trademark of Atlas Chemical Company). The composition, generally in the nature of an emulsion, was employed to treat separate respective seed beds of sandy loam soil of good nutrient content wherein each seed bed contained separate groups of good viable seeds, each group being of one of a known plant species. The various beds were positioned side by side and exposed to substantially identical conditions of temperature and light. Each bed was maintained so as to prevent any interaction with the test compound in different seed beds. Each seed bed was treated with the composition as a spray employing conventional spraying equipment to deposit a predetermined amount of the compound uniformly throughout the surface of the bed. Another seed bed was treated only with the acetone-Tween-20 water mixture with no chemical added to serve as a control.

Johnson Grass = conditions: Sorghum halepense, pre-emergence, read-out: Preemergence Control; for pest or weed control at 140 g/ha: 0.14 kgs/hectare; for pest or weed control at 1120 g/ha: 1.12 kgs/hectare; for pest or weed control at 70 g/ha: 0.07 kgs/hectare; for pest or weed control at 280 g/ha: 0.28 kgs/hectare; for pest or weed control at 560 g/ha: 0.56 kgs/hectare
Description: as §1

Wheat = conditions: Triticum aestivum, pre-emergence, read-out: Preemergence Control; for plant injury at 70 g/ha: 0.07 kgs/hectare; for plant injury at 140 g/ha: 0.14 kgs/hectare; for plant injury at 280 g/ha: 0.28 kgs/hectare; for plant injury at 560 g/ha: 0.56 kgs/hectare; for plant injury at 1120 g/ha: 1.12 kgs/hectare
Description: as §1

Yellow Foxtail = conditions: Setaria, pre-emergence, read-out: Preemergence Control; for pest or weed control at 140 g/ha: 0.14 kgs/hectare; for pest or weed control at 1120 g/ha: 1.12 kgs/hectare; for pest or weed control at 70 g/ha: 0.07 kgs/hectare; for pest or weed control at 280 g/ha: 0.28 kgs/hectare; for pest or weed control at 560 g/ha: 0.56 kgs/hectare
Description: as §1

Barnyard Grass = conditions: Echinochloa crus-galli, pre-emergence, read-out: Preemergence Control; for pest or weed control at 140 g/ha: 0.14 kgs/hectare; for pest or weed control at 1120 g/ha: 1.12 kgs/hectare; for pest or weed control at 70 g/ha: 0.07 kgs/hectare; for pest or weed control at 280 g/ha: 0.28 kgs/hectare; for pest or weed control at 560 g/ha: 0.56 kgs/hectare
Description: as §1

For `CC(Oc1ccc(Oc2ccc(Br)cc2F)cc1)C(=O)N(C)c1ccccc1` (stereo not shown), the pest or weed control at 140 g/ha (Wild Oats) was 0%, the pest or weed control at 1120 g/ha (Wild Oats) was 0% and the pest or weed control at 140 g/ha (Johnson Grass) was 0%. For the same compound, the pest or weed control at 1120 g/ha (Johnson Grass) was 0%, the plant injury at 70 g/ha (Wheat) was 0% and the plant injury at 140 g/ha (Wheat) was 0%. It also gave a plant injury at 280 g/ha (Wheat) of 0%, a plant injury at 560 g/ha (Wheat) of 0% and a plant injury at 1120 g/ha (Wheat) of 0%. It also gave a pest or weed control at 140 g/ha (Yellow Foxtail) of 0%, a pest or weed control at 1120 g/ha (Yellow Foxtail) of 0% and a pest or weed control at 140 g/ha (Barnyard Grass) of 0%. The pest or weed control at 1120 g/ha (Barnyard Grass) was 0%.
For `CC(Oc1ccc(Oc2ccc(Br)cc2F)cc1)C(=O)OCCN(C)C` (stereo not shown) [O(CH2)2 N(CH3)2], the pest or weed control at 70 g/ha (Wild Oats) was 0%, the pest or weed control at 140 g/ha (Wild Oats) was 30% and the pest or weed control at 280 g/ha (Wild Oats) was 30%. For the same compound, the pest or weed control at 560 g/ha (Wild Oats) was 90%, the pest or weed control at 1120 g/ha (Wild Oats) was 99% and the pest or weed control at 70 g/ha (Johnson Grass) was 0%. The pest or weed control at 140 g/ha (Johnson Grass) was 0%, the pest or weed control at 280 g/ha (Johnson Grass) was 60% and the pest or weed control at 560 g/ha (Johnson Grass) was 95%. For the same compound, the pest or weed control at 1120 g/ha (Johnson Grass) was 100%, the plant injury at 70 g/ha (Wheat) was 0% and the plant injury at 140 g/ha (Wheat) was 0%. The plant injury at 280 g/ha (Wheat) was 0%, the plant injury at 560 g/ha (Wheat) was 0% and the plant injury at 1120 g/ha (Wheat) was 0%. It also gave a pest or weed control at 70 g/ha (Yellow Foxtail) of 0%, a pest or weed control at 140 g/ha (Yellow Foxtail) of 0% and a pest or weed control at 280 g/ha (Yellow Foxtail) of 0%. For the same compound, the pest or weed control at 560 g/ha (Yellow Foxtail) was 100%, the pest or weed control at 1120 g/ha (Yellow Foxtail) was 100% and the pest or weed control at 70 g/ha (Barnyard Grass) was 70%. For the same compound, the pest or weed control at 140 g/ha (Barnyard Grass) was 100%, the pest or weed control at 280 g/ha (Barnyard Grass) was 100% and the pest or weed control at 560 g/ha (Barnyard Grass) was 100%. For the same compound, the pest or weed control at 1120 g/ha (Barnyard Grass) was 100%.
`CCCCCCCCOC(=O)C(C)Oc1ccc(Oc2ccc(Br)cc2F)cc1` (stereo not shown) [O(CH2)7 CH3] gave a pest or weed control at 70 g/ha (Wild Oats) of 0%, a pest or weed control at 140 g/ha (Wild Oats) of 0% and a pest or weed control at 280 g/ha (Wild Oats) of 100%. For the same compound, the pest or weed control at 560 g/ha (Wild Oats) was 100%, the pest or weed control at 1120 g/ha (Wild Oats) was 100% and the pest or weed control at 70 g/ha (Johnson Grass) was 0%. For the same compound, the pest or weed control at 140 g/ha (Johnson Grass) was 0%, the pest or weed control at 280 g/ha (Johnson Grass) was 100% and the pest or weed control at 560 g/ha (Johnson Grass) was 100%. For the same compound, the pest or weed control at 1120 g/ha (Johnson Grass) was 100%, the plant injury at 70 g/ha (Wheat) was 0% and the plant injury at 140 g/ha (Wheat) was 0%. The plant injury at 280 g/ha (Wheat) was 0%, the plant injury at 560 g/ha (Wheat) was 0% and the plant injury at 1120 g/ha (Wheat) was 90%. The pest or weed control at 70 g/ha (Yellow Foxtail) was 0%, the pest or weed control at 140 g/ha (Yellow Foxtail) was 0% and the pest or weed control at 280 g/ha (Yellow Foxtail) was 80%. For the same compound, the pest or weed control at 560 g/ha (Yellow Foxtail) was 90%, the pest or weed control at 1120 g/ha (Yellow Foxtail) was 100% and the pest or weed control at 70 g/ha (Barnyard Grass) was 9%. The pest or weed control at 140 g/ha (Barnyard Grass) was 95%, the pest or weed control at 280 g/ha (Barnyard Grass) was 100% and the pest or weed control at 560 g/ha (Barnyard Grass) was 100%. The pest or weed control at 1120 g/ha (Barnyard Grass) was 100%.
`COc1cccc(NC(=O)C(C)Oc2ccc(Oc3ccc(Br)cc3F)cc2)c1` (stereo not shown) was tested, and the pest or weed control at 140 g/ha (Wild Oats) was 0%, the pest or weed control at 280 g/ha (Wild Oats) was 0% and the pest or weed control at 560 g/ha (Wild Oats) was 40%. For the same compound, the pest or weed control at 1120 g/ha (Wild Oats) was 30%, the pest or weed control at 140 g/ha (Johnson Grass) was 0% and the pest or weed control at 280 g/ha (Johnson Grass) was 30%. It also gave a pest or weed control at 560 g/ha (Johnson Grass) of 30%, a pest or weed control at 1120 g/ha (Johnson Grass) of 100% and a plant injury at 70 g/ha (Wheat) of 0%. It also gave a plant injury at 140 g/ha (Wheat) of 0%, a plant injury at 280 g/ha (Wheat) of 0% and a plant injury at 560 g/ha (Wheat) of 0%. For the same compound, the plant injury at 1120 g/ha (Wheat) was 0%, the pest or weed control at 140 g/ha (Yellow Foxtail) was 0% and the pest or weed control at 280 g/ha (Yellow Foxtail) was 20%. It also gave a pest or weed control at 560 g/ha (Yellow Foxtail) of 80%, a pest or weed control at 1120 g/ha (Yellow Foxtail) of 100% and a pest or weed control at 140 g/ha (Barnyard Grass) of 0%. For the same compound, the pest or weed control at 280 g/ha (Barnyard Grass) was 100%, the pest or weed control at 560 g/ha (Barnyard Grass) was 100% and the pest or weed control at 1120 g/ha (Barnyard Grass) was 100%.
In the case of `CCCCOC(=O)C(C)Oc1ccc(Oc2ccc(Br)cc2F)cc1` (stereo not shown) [O(CH2)3 CH3, Propionic acid: 2-(4-(4-bromo-2-fluorophenoxy)phenoxy), n-butyl ester], the pest or weed control at 70 g/ha (Wild Oats) is reported as 0%, the pest or weed control at 140 g/ha (Wild Oats) is reported as 0% and the pest or weed control at 280 g/ha (Wild Oats) is reported as 50%. For the same compound, the pest or weed control at 560 g/ha (Wild Oats) was 80%, the pest or weed control at 1120 g/ha (Wild Oats) was 100% and the pest or weed control at 70 g/ha (Johnson Grass) was 0%. The pest or weed control at 140 g/ha (Johnson Grass) was 0%, the pest or weed control at 280 g/ha (Johnson Grass) was 65% and the pest or weed control at 560 g/ha (Johnson Grass) was 100%. For the same compound, the pest or weed control at 1120 g/ha (Johnson Grass) was 100%, the plant injury at 70 g/ha (Wheat) was 0% and the plant injury at 140 g/ha (Wheat) was 0%. For the same compound, the plant injury at 280 g/ha (Wheat) was 0%, the plant injury at 560 g/ha (Wheat) was 30% and the plant injury at 1120 g/ha (Wheat) was 30%. For the same compound, the pest or weed control at 70 g/ha (Yellow Foxtail) was 0%, the pest or weed control at 140 g/ha (Yellow Foxtail) was 40% and the pest or weed control at 280 g/ha (Yellow Foxtail) was 95%. It also gave a pest or weed control at 560 g/ha (Yellow Foxtail) of 100%, a pest or weed control at 1120 g/ha (Yellow Foxtail) of 100% and a pest or weed control at 70 g/ha (Barnyard Grass) of 0%. It also gave a pest or weed control at 140 g/ha (Barnyard Grass) of 70%, a pest or weed control at 280 g/ha (Barnyard Grass) of 100% and a pest or weed control at 560 g/ha (Barnyard Grass) of 100%. The pest or weed control at 1120 g/ha (Barnyard Grass) was 100%.
